Laboratory results as given in patent US10758609B2, “Cross-reactive T-cell epitopes of HIV, SIV, and FIV for vaccines in humans and cats” (priority 2015, dated 2020).
Residues, ends and D or L forms follow the SMILES beside them.

Experiments:
[1] = system: CD8^+ T cells from HIV^+ subjects; assay: FACS-based intracellular staining (ICS) for cytolysin (perforin) and cytotoxins (GrzA, GrzB) in CD8+ T cells; details: HIV+ human subjects; for CyCD8: CD8+ T-cell cytolysin/cytotoxins (perforin, GrzA & B), frequency of responders: HIV-1 epitope peptide, threshold ≥0.2%
Experimental: (§1) The overlapping peptide pools of FIV and HIV-1 structural and enzyme proteins were used to stimulate the […] (PBMC) and the T cells from HIV^+ subjects as previously described for epitope mapping of HIV-1 and FIV p24 and reverse transcriptase (RT) (Sanou et al., 2013; Roff et al., 2015). The individual peptides in those peptide pools with positive responses to either interferon-γ (IFNγ) production and/or T-cell proliferation were determined with IFNγ ELISpot analysis and CFSE-based CD3^+CD4^+ and CD3^+CD8^+ T-cell proliferation analyses followed by the FACS-based intracellular staining (ICS) for cytolysin (perforin) and cytotoxin (granzyme A [GrzA] and GrzB) (Sanou et al., 2013; Roff et al., 2015). Besides viral p24 and RT proteins, the identical approach was used to identify anti-HIV/FIV T-cell epitopes on viral matrix (MA), nucleocapsid (NC), protease (PR), RNAase, integrase (IN), surface envelope (SU Env), and transmembrane envelope (TM Env) (FIG. 12).
(§2) Since our goal is to develop HIV vaccine for human use, the HIV peptides (Table 10) counterpart of the cross-reactive FIV peptides shown in Table 9 were tested with PBMC and T cells from HIV^+ subjects. The immune functions analyzed were human IFNγ production by ELISpot, cytolysin/cytotoxin production by ICS, and CFSE-based proliferation of CD3^+CD4^+ and CD3^+CD8^+ T cells from HIV^+ subjects (Table 10, the first set of results). In addition, the Los Alamos National Laboratories (LANL) database was used to identify the HLA allele(s) of the HIV epitope sequence with CTL activity that can exist within the sequence of the conserved counterpart HIV peptide (Table 9, LANL CTL). The bold HLA class-I supertypes and the bold 2-digit alleles are those on the “Optimal CD8^+ CTL Epitopes” list and those without bold are alleles for potential CTL epitope. […] The HLA class II such as HLA-DRB1 has yet to be fully classified into supertypes, and therefore the 4-digit resolution nomenclatures for the HLA-DRB1 alleles are shown.
(§3) The threshold for positive IFNγ and IL2 ELISpot responses is ≥50 spot-forming units (SFU) per 10^6 PBMC. The threshold for CFSE-based CD4^+ and CD8^+ T-cell proliferation is ≥2% CD4^+ T-cell CFSE^low or CD8^+ T-cell CFSE^low. The threshold of FACS-based intracellular cytokine staining (ICS) is ≥0.2%. […] The nine FIV peptides in black were used in the current MAP vaccine trial, whereas the 13 peptides in blue were not used. […] The MAPs and their corresponding peptide(s) were also tested for their ability to enhance or suppress in vitro FIV infection of feline PBMC (E/S of peptides and E/S of MAP).
(§4) The counterpart HIV-1 peptides of the FIV peptides were also tested for immunogenicity using PBMC and T cells from HIV^+ human subjects. […] The HRT7-1 and HRT7-2 were also tested with cells from HIV^+ subjects on ART. The threshold for positive IFNγ ELISpot response is ≥75 spot-forming units (SFU) per 10^6 PBMC. The threshold for CFSE-based CD4^+ (CD4^+ T) and CD8^+ (CD8^+ T) T-cell proliferation is ≥2% CD4^+ T-cell CFSE^low or CD8^+ T-cell CFSE^low. The threshold of intracellular cytokine staining (ICS) of FACS-based cytolysin (perforin) and cytotoxins (granzymes A and B) in CD4^+ T cells (CyCD4) and CD8^+ T cells (CyCD8) is ≥0.2%. […] The nine HIV-1 peptides in black are the counterpart FIV peptides used in the current MAP vaccine trial, whereas the 13 peptides in blue were not.

[2] = system: CD4^+ T cells from HIV^+ subjects; details: HIV+ human subjects; for CyCD4: CD4+ T-cell cytolysin/cytotoxins (perforin, GrzA & B), frequency of responders: HIV-1 epitope peptide, threshold ≥0.2%
Experimental: as §1, §2, §4

[3] = system: CD3^+CD8^+ T cells from HIV^+ subjects; assay: CFSE-based CD3+CD8+ T-cell proliferation, HIV+ human subjects
Experimental: as §1, §2, §3, §4

PBMC from HIV^+ subjects = assay: IFNγ ELISpot of PBMC from HIV+ human subjects; assay type: cell-based
Experimental: as §1, §2
In addition, these peptides were also analyzed for IFNγ production, CD4^+ and CD8^+ T-cell proliferation, and cytolysin (perforin) and cytotoxin (granzyme A (GrzA) and GrzB)) mRNA production of PBMC or T cells from 8-30 HIV^+ human subjects. The frequency of responders is based on the individual responses of the vaccinated cats or HIV^+ human subjects after subtraction of the average of the responses of PBMC or T cells from 6-8 non-vaccinated cats or 8-20 HIV-negative human subjects.
as §3
The counterpart HIV-1 peptides of the FIV peptides were also tested for immunogenicity using PBMC and T cells from HIV^+ human subjects. […] The HRT7-1 and HRT7-2 were also tested with cells from HIV^+ subjects on ART. The threshold for positive IFNγ ELISpot response is ≥75 spot-forming units (SFU) per 10^6 PBMC. The threshold for CFSE-based CD4^+ (CD4^+ T) and CD8^+ (CD8^+ T) T-cell proliferation is ≥2% CD4^+ T-cell CFSE^low or CD8^+ T-cell CFSE^low. The threshold of intracellular cytokine staining (ICS) of FACS-based cytolysin (perforin) and cytotoxins (granzymes A and B) in CD4^+ T cells (CyCD4) and CD8^+ T cells (CyCD8) is ≥0.2%.

[4] = system: CD3^+CD4^+ T cells from HIV^+ subjects; assay: CFSE-based CD3+CD4+ T-cell proliferation, HIV+ human subjects
Experimental: as §1, §2, §3, §4

[5] = HIV-1 epitope peptide, threshold ≥2% CFSElow

Q: Which results are given for CC[C@H](C)[C@H](NC(=O)[C@H](CCCNC(=N)N)NC(=O)[C@@H](N)CC(C)C)C(=O)N[C@H](C(=O)N[C@@H](Cc1ccccc1)C(=O)N[C@@H](C)C(=O)N[C@H](C(=O)N[C@@H](CC(C)C)C(=O)N[C@@H](CO)C(=O)N[C@H](C(=O)N[C@H](C(=O)N[C@@H](CC(N)=O)C(=O)N[C@@H](CCCNC(=N)N)C(=O)N[C@H](C(=O)N[C@@H](CCCNC(=N)N)C(=O)N[C@@H](CCC(N)=O)C(=O)O)C(C)C)C(C)C)[C@@H](C)CC)C(C)C)C(C)C [HTM8(20)] (H-LRIVFAVLSIVNRVRQ-OH; N-terminus and C-terminus assumed)?
A: CyCD8: CD8+ T-cell cytolysin/cytotoxins (perforin, GrzA & B), frequency of responders [1]: − (0%-1.4% (−)); CyCD4: CD4+ T-cell cytolysin/cytotoxins (perforin, GrzA & B), frequency of responders [2]: − (0%-1.4% (−))

Q: Which “CyCD8: CD8+ T-cell cytolysin/cytotoxins (perforin, GrzA & B), frequency of responders” value [1] does the source give for CSCC[C@H](NC(=O)[C@@H](NC(=O)[C@H](CC(N)=O)NC(=O)[C@H](CC(C)C)NC(=O)[C@H](CC(=O)O)NC(=O)[C@H](CCC(N)=O)NC(=O)[C@@H]1CCCN1)[C@@H](C)O)C(=O)N[C@@H](CC(C)C)C(=O)N[C@@H](CC(N)=O)C(=O)N[C@H](C(=O)N[C@H](C(=O)NCC(=O)NCC(=O)N[C@@H](Cc1c[nH]cn1)C(=O)N[C@@H](CCC(N)=O)C(=O)O)C(C)C)[C@@H](C)O [Hp4-3] (H-PQDLNTMLNTVGGHQ-OH; N-terminus and C-terminus assumed) here?
A: Its value is “++ (25.1%-40% (++))”.

Q: And the “CyCD4: CD4+ T-cell cytolysin/cytotoxins (perforin, GrzA & B), frequency of responders” value [2]?
A: The value was “− (0%-1.4% (−))”.

Q: For CSCC[C@H](NC(=O)[C@H](Cc1c[nH]c2ccccc12)NC(=O)[C@H](CC(N)=O)NC(=O)[C@H](CCCCN)NC(=O)[C@@H](NC(=O)[C@H](CCC(=O)O)NC(=O)[C@H](CCC(N)=O)NC(=O)[C@H](CO)NC(=O)[C@H](C)N)C(C)C)C(=O)N[C@H](C(=O)N[C@@H](CCC(=O)O)C(=O)N[C@H](C(=O)N[C@@H](CC(C)C)C(=O)N[C@@H](CC(C)C)C(=O)N[C@H](C(=O)O)C(C)C)[C@@H](C)O)[C@@H](C)O [Hp14-3 (15-2)] (H-ASQEVKNWMTETLLV-OH), which “CyCD8: CD8+ T-cell cytolysin/cytotoxins (perforin, GrzA & B), frequency of responders” value [1] is on record?
A: Its value is “++++ (>54% (++++))”.

Q: And the “CyCD4: CD4+ T-cell cytolysin/cytotoxins (perforin, GrzA & B), frequency of responders” value [2]?
A: Its value is “++++ (>54% (++++))”.

Q: What does the source list for KKDSTKWRKLVDFRE [HRT3-3]?
A: CD8+ T proliferation, frequency of responders [3, 5]: +++ (40.1%-54% (+++)); CD8^+ T (T-cell proliferation), frequency of responders ([3]; HIV-1 peptides): +++ (40.1%-54% (+++)); CyCD8: CD8+ T-cell cytolysin/cytotoxins (perforin, GrzA & B), frequency of responders [1]: ++++ (>54% (++++)); CyCD7, frequency of responders ([1]; HIV-1 peptides): ++++ (>54% (++++)); CyCD4: CD4+ T-cell cytolysin/cytotoxins (perforin, GrzA & B), frequency of responders [2]: ++++ (>54% (++++)); CyCD4 (cytolysin and cytotoxin production of CD4+ T cells), frequency of responders ([2]; HIV-1 peptides): ++++ (>54% (++++)); IFNγ, frequency of responders (PBMC from HIV^+ subjects; HIV-1 epitope peptide, threshold ≥75 SFU per 10^6 PBMC): + (12.5%-25% (+)); IFNγ, frequency of responders (PBMC from HIV^+ subjects; HIV-1 peptides): + (12.5%-25% (+)); CD4+ T proliferation, frequency of responders [4, 5]: ++ (25.1%-40% (++)); CDC4^+ T (T-cell proliferation), frequency of responders ([4]; HIV-1 peptides): ++ (25.1%-40% (++))
